Measurements published in patent US5618844A, “Hydroxamic acid and carboxylic acid derivatives, process for their preparation and use thereof” (Sanofi S.A., priority 1995, dated 1997).

Assays:
Assay type in all cases: biochemical
[1] = biological target: T1, Human Fibroblast Collagenase (Homo sapiens, UniProt P03956); assay: inhibition of recombinant MMP, peptide substrate assay with fluorescamine detection (HFC); details: calculated from measured percent inhibition using Km, assuming competitive inhibition; Met1-Pro250 proenzyme, activated with p-aminophenylmercury
T1 construct: All active MMPs are purified by gel filtration; made in house
T1 sequence (P03956 100-269 limits assumed): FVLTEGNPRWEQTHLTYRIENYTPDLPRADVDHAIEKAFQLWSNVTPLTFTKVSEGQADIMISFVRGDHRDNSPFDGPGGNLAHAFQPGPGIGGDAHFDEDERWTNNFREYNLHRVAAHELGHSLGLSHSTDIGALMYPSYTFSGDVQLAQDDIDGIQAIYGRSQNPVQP

[2] = biological target: T2, Human Neutrophil Collagenase (Homo sapiens, UniProt P22894); assay: inhibition of recombinant MMP, peptide substrate assay with fluorescamine detection (HNC); details: calculated from measured percent inhibition using Km, assuming competitive inhibition; Met100-Gly262
T2 construct: expressed as mature enzymes with C-terminal truncations, Phe83-Thr260 and Met100-Gly262, respectively; made in house

[3] = biological target: T3, Human Fibroblast Stromelysin (Homo sapiens, UniProt P08254); assay: inhibition of recombinant MMP, peptide substrate assay with fluorescamine detection (HFS)
T3 construct: expressed as mature enzymes with C-terminal truncations, Phe83-Thr260 and Met100-Gly262, respectively; made in house
T3 sequence (P08254 100-277): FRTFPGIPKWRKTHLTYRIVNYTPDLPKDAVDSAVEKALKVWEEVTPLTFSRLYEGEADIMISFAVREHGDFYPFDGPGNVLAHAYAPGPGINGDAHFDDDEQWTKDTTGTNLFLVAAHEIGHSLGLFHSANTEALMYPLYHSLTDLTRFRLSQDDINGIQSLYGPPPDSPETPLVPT

T2 sequence (P22894 100-262): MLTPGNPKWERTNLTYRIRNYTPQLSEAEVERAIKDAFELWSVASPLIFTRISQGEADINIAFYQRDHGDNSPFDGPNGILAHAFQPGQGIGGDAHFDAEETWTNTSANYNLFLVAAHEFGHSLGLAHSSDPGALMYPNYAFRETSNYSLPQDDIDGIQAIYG

Structure (SMILES) | Ki [1] [µM] | Ki [2] [µM] | Ki [3] [µM]
CNC(=O)[C@H](Cc1ccccc1)NC(=O)[C@H](CCCCOCc1ccccc1)CC(=O)NO [Example 2, N-[(2R)-2-[2'-(Hydroxyamino)-2'(oxo)ethyl]-6-(phenylmethoxy)hexanoyl]-L-phenylalanine N-methylamide] | 1.45 |  | 
CNC(=O)[C@H](Cc1ccccc1)NC(=O)[C@H](CCCC(=O)O)CC(=O)NO [Example 4, N-[(2R)-2-[2'-(Hydroxyamino)-2'-(oxo)ethyl]-5-(carboxy)pentanoyl]-L-phenylalanine N-methylamide] |  | 0.27 | 
CCCNC(=O)CCC[C@H](CC(=O)NO)C(=O)N[C@@H](Cc1ccccc1)C(=O)NC [Example 5, N-[(2R)-2-[2'-(Hydroxyamino)-2'-(oxo)ethyl]-6-(propylamino)-6-(oxo)hexanoyl]-L-phenylalanine N-methylamide] | 5.1 | < 0.002 | 
CNC(=O)[C@@H](NC(=O)[C@H](CCCCOCc1ccccc1)CC(=O)NO)C(C)(C)C [Example 8, (2S)-N-2-[(2'R)-2'-[2"-(Hydroxyamino)-2"-(oxo)ethyl]-6'-(phenylmethoxy)hexanoyl]amino-3,3-dimethylbutanoic acid N-methylamide] | 1.4 | 0.005 | 0.057
CNC(=O)[C@H](Cc1ccccc1)NC(=O)[C@H](CCCOCc1ccccc1)CC(=O)NO [Example 10, N-[(2R)-2-[2'-(Hydroxyamino)-2'-(oxo)ethyl]-5-(phenylmethoxy)pentanoyl]-L-phenylalanine N-methylamide] | 2.27 |  | 
CNC(=O)[C@H](Cc1ccccc1)NC(=O)[C@H](CCCCCOCc1ccccc1)CC(=O)NO [Example 11, N-[(2R)-2-[2'-(Hydroxyamino)-2'-(oxo)ethyl]-7-(phenylmethoxy)heptanoyl]-L-phenylalanine N-methylamide] | 0.92 | 0.004 | 
CCCC(=O)NCCCC[C@H](CC(=O)NO)C(=O)N[C@@H](Cc1ccccc1)C(=O)NC [Example 12] | 1.6 | 0.12 | 
CNC(=O)[C@@H](NC(=O)[C@H](CCCCOc1cccc(C)c1)CC(=O)O)C(C)(C)C [Example 19, (2S)-N-2'-[(2'R)-2'-(carboxymethyl)-6'-(3-methylphenoxy)hexanoyl]amino-3,3-dimethylbutanoic acid N-methylamide] | 1.8 |  | 0.22

The next lines start with the values.

Ki [1] [µM] | Ki [2] [µM] | Ki [3] [µM] | Structure (SMILES)
0.03 | 0.007 |  | CNC(=O)[C@H](Cc1ccccc1)NC(=O)[C@H](CCCCO)CC(=O)NO [Example 3, N-[(2R)-2-[2'-(hydroxyamino)-2'-(oxo)ethyl]-6-(hydroxy)hexanoyl]-L-phenylalanine N-methylamide]
0.15 | 0.02 | 1.5 | CNC(=O)[C@H](Cc1ccccc1)NC(=O)[C@H](CCCC(C)O)CC(=O)NO (stereo partly drawn) [Example 6, N-[(2R)-2-[2'-(Hydroxyamino)-2'-(oxo)ethyl]-(6RS)-6-(hydroxy)heptanoyl]-L-phenylalanine N-methylamide]
0.027 | 0.017 | 5 | CNC(=O)[C@@H](NC(=O)[C@H](CCCCO)CC(=O)NO)C(C)(C)C [Example 9, (2S)-N-2-[(2'R)-2'-[2"-(Hydroxyamino)-2"-(oxo)ethyl]-6'-(hydroxy)hexanoyl]amino-3,3-dimethylbutanoic acid N-methylamide]
0.008 |  |  | CNC(=O)[C@H](Cc1ccccc1)NC(=O)[C@H](CCCCOc1ccccc1)CC(=O)NO [Example 13, N-[(2R)-2-[2'-(Hydroxyamino)-2'-(oxo)ethyl]-6-(phenoxy)-hexanoyl]-L-phenylalanine N-methylamide]
0.035 | 0.016 | 0.026 | CNC(=O)[C@@H](NC(=O)[C@H](CCCC(=O)NCCc1ccccc1)CC(=O)NO)C(C)(C)C [Example 15, (2S)-N-2'-[(2'R)-2'-[2"-(Hydroxyamino)-2"-(oxo)ethyl]-6'-(2-phenethylamino)-6' (oxo)hexanoyl]amino-3,3-dimethylbutanoic acid N-methylamide]
0.014 |  |  | CNC(=O)[C@@H](NC(=O)[C@H](CCCCOc1ccc(C)cc1)CC(=O)NO)C(C)(C)C [Example 16, (2S)-N-2'-[(2'R)-2'-[2"-(Hydroxyamino)-2"-(oxo)ethyl]-6'-(4-methylphenoxy)hexanoyl]amino-3,3-dimethylbutanoic acid N-methylamide]
0.021 |  |  | CNC(=O)[C@@H](NC(=O)[C@H](CCCCOc1ccc(Cl)cc1)CC(=O)NO)C(C)(C)C [Example 17, (2S)-N-2'-[(2'R)-2'-[2"-(Hydroxyamino)-2"-(oxo)ethyl]-6'-(4-chlorophenoxy)hexanoyl]amino-3,3-dimethylbutanoic acid N-methylamide]
